From ChEMBL document CHEMBL4665642, “Anticancer profile of newly synthesized BRAF inhibitors possess 5-(pyrimidin-4-yl)imidazo[2,1-b]thiazole scaffold” (Bioorg Med Chem, 2019)

How the values were obtained:
Assay type in all cases: functional
Conditions in all cases: read-out: Activity
MDA-MB-468 = experiment: Cytotoxicity against human MDA-MB-468 cells assessed as cell viability at 10 uM incubated for 48 hrs by sulforhodamine B assay relative to control
BT-549 = experiment: Cytotoxicity against human BT-549 cells assessed as cell viability at 10 uM incubated for 48 hrs by sulforhodamine B assay relative to control
Hs-578T = experiment: Cytotoxicity against human HS-578T cells assessed as cell viability at 10 uM incubated for 48 hrs by sulforhodamine B assay relative to control
MDA-MB-231 = experiment: Cytotoxicity against human MDA-MB-231 cells assessed as cell viability at 10 uM incubated for 48 hrs by sulforhodamine B assay relative to control
DU-145 = experiment: Cytotoxicity against human DU-145 cells assessed as cell viability at 10 uM incubated for 48 hrs by sulforhodamine B assay relative to control
TK-10 = experiment: Cytotoxicity against human TK-10 cells assessed as cell viability at 10 uM incubated for 48 hrs by sulforhodamine B assay relative to control
SN12C = experiment: Cytotoxicity against human SN12C cells assessed as cell viability at 10 uM incubated for 48 hrs by sulforhodamine B assay relative to control
RXF 393 = experiment: Cytotoxicity against human RXF 393 cells assessed as cell viability at 10 uM incubated for 48 hrs by sulforhodamine B assay relative to control
CAKI-1 = experiment: Cytotoxicity against human CAKI-1 cells assessed as cell viability at 10 uM incubated for 48 hrs by sulforhodamine B assay relative to control
ACHN = experiment: Cytotoxicity against human ACHN cells assessed as cell viability at 10 uM incubated for 48 hrs by sulforhodamine B assay relative to control
786-0 = experiment: Cytotoxicity against human 786-0 cells assessed as cell viability at 10 uM incubated for 48 hrs by sulforhodamine B assay relative to control
SK-OV-3 = experiment: Cytotoxicity against human SK-OV-3 cells assessed as cell viability at 10 uM incubated for 48 hrs by sulforhodamine B assay relative to control
NCI/ADR-RES = experiment: Cytotoxicity against human NCI/ADR-RES cells assessed as cell viability at 10 uM incubated for 48 hrs by sulforhodamine B assay relative to control
OVCAR-8 = experiment: Cytotoxicity against human OVCAR-8 cells assessed as cell viability at 10 uM incubated for 48 hrs by sulforhodamine B assay relative to control
OVCAR-3 = experiment: Cytotoxicity against human OVCAR-3 cells assessed as cell viability at 10 uM incubated for 48 hrs by sulforhodamine B assay relative to control
UACC-62 = experiment: Cytotoxicity against human UACC-62 cells assessed as cell viability at 10 uM incubated for 48 hrs by sulforhodamine B assay relative to control
UACC-257 = experiment: Cytotoxicity against human UACC-257 cells assessed as cell viability at 10 uM incubated for 48 hrs by sulforhodamine B assay relative to control
SK-MEL-28 = experiment: Cytotoxicity against human SK-MEL-28 cells assessed as cell viability at 10 uM incubated for 48 hrs by sulforhodamine B assay relative to control
MDA-MB-435 = experiment: Cytotoxicity against human MDA-MB-435 cells assessed as cell viability at 10 uM incubated for 48 hrs by sulforhodamine B assay relative to control
M14 = experiment: Cytotoxicity against human M14 cells assessed as cell viability at 10 uM incubated for 48 hrs by sulforhodamine B assay relative to control
Malme-3M = experiment: Cytotoxicity against human Malme-3M cells assessed as cell viability at 10 uM incubated for 48 hrs by sulforhodamine B assay relative to control
CCRF-CEM = experiment: Cytotoxicity against human CCRF-CEM cells assessed as cell viability at 10 uM incubated for 48 hrs by sulforhodamine B assay relative to control
SR = experiment: Cytotoxicity against human SR cells assessed as cell viability at 10 uM incubated for 48 hrs by sulforhodamine B assay relative to control
HOP-92 = experiment: Cytotoxicity against human HOP-92 cells assessed as cell viability at 10 uM incubated for 48 hrs by sulforhodamine B assay relative to control
NCI-H226 = experiment: Cytotoxicity against human NCI-H226 cells assessed as cell viability at 10 uM incubated for 48 hrs by sulforhodamine B assay relative to control
NCI-H23 = experiment: Cytotoxicity against human NCI-H23 cells assessed as cell viability at 10 uM incubated for 48 hrs by sulforhodamine B assay relative to control
NCI-H322M = experiment: Cytotoxicity against human NCI-H322M cells assessed as cell viability at 10 uM incubated for 48 hrs by sulforhodamine B assay relative to control
NCI-H460 = experiment: Cytotoxicity against human NCI-H460 cells assessed as cell viability at 10 uM incubated for 48 hrs by sulforhodamine B assay relative to control
NCI-H522 = experiment: Cytotoxicity against human NCI-H522 cells assessed as cell viability at 10 uM incubated for 48 hrs by sulforhodamine B assay relative to control
COLO 205 = experiment: Cytotoxicity against human COLO 205 cells assessed as cell viability at 10 uM incubated for 48 hrs by sulforhodamine B assay relative to control
HCT-116 = experiment: Cytotoxicity against human HCT-116 cells assessed as cell viability at 10 uM incubated for 48 hrs by sulforhodamine B assay relative to control
HCT-15 = experiment: Cytotoxicity against human HCT-15 cells assessed as cell viability at 10 uM incubated for 48 hrs by sulforhodamine B assay relative to control
HCT-29 = experiment: Cytotoxicity against human […] cells assessed as cell viability at 10 uM incubated for 48 hrs by sulforhodamine B assay relative to control
KM12 = experiment: Cytotoxicity against human KM12 cells assessed as cell viability at 10 uM incubated for 48 hrs by sulforhodamine B assay relative to control
SW-620 = experiment: Cytotoxicity against human SW-620 cells assessed as cell viability at 10 uM incubated for 48 hrs by sulforhodamine B assay relative to control
SF-268 = experiment: Cytotoxicity against human SF-268 cells assessed as cell viability at 10 uM incubated for 48 hrs by sulforhodamine B assay relative to control
SF-295 = experiment: Cytotoxicity against human SF-295 cells assessed as cell viability at 10 uM incubated for 48 hrs by sulforhodamine B assay relative to control
SNB-75 = experiment: Cytotoxicity against human SNB-75 cells assessed as cell viability at 10 uM incubated for 48 hrs by sulforhodamine B assay relative to control
U-251 = experiment: Cytotoxicity against human U-251 cells assessed as cell viability at 10 uM incubated for 48 hrs by sulforhodamine B assay relative to control
LOX IMVI = experiment: Cytotoxicity against human LOX IMVI cells assessed as cell viability at 10 uM incubated for 48 hrs by sulforhodamine B assay relative to control

SMILES	viability at 10 µM (MDA-MB-468) [%]	viability at 10 µM (BT-549) [%]	viability at 10 µM (Hs-578T) [%]	viability at 10 µM (MDA-MB-231) [%]	viability at 10 µM (DU-145) [%]	viability at 10 µM (TK-10) [%]	viability at 10 µM (SN12C) [%]	viability at 10 µM (RXF 393) [%]	viability at 10 µM (CAKI-1) [%]	viability at 10 µM (ACHN) [%]	viability at 10 µM (786-0) [%]	viability at 10 µM (SK-OV-3) [%]	viability at 10 µM (NCI/ADR-RES) [%]	viability at 10 µM (OVCAR-8) [%]	viability at 10 µM (OVCAR-3) [%]	viability at 10 µM (UACC-62) [%]	viability at 10 µM (UACC-257) [%]	viability at 10 µM (SK-MEL-28) [%]	viability at 10 µM (MDA-MB-435) [%]	viability at 10 µM (M14) [%]	also measured
Cc1ccc(S(=O)(=O)NCCCNc2nccc(-c3c(-c4cccc(F)c4)nc4sccn34)n2)cc1	78.2	84.5	84.3	84.5	77	99.4	70.5	80.3	46.9	65.5	78.4	75.2	79.7	60.3	89	47.8	121	106	48.8	80.7	viability at 10 µM (Malme-3M): 116%; viability at 10 µM (CCRF-CEM): 62.7%; viability at 10 µM (SR): 102%; viability at 10 µM (HOP-92): 112%; viability at 10 µM (NCI-H226): 53.7%; viability at 10 µM (NCI-H23): 96.2%; viability at 10 µM (NCI-H322M): 89.6%; viability at 10 µM (NCI-H460): 65.1%; viability at 10 µM (NCI-H522): 70.8%; viability at 10 µM (COLO 205): 55.5%; viability at 10 µM (HCT-116): 49.6%; viability at 10 µM (HCT-15): 47.1%; viability at 10 µM (HCT-29): 37.3%; viability at 10 µM (KM12): 67.3%; viability at 10 µM (SW-620): 79.4%; viability at 10 µM (SF-268): 65.9%; viability at 10 µM (SF-295): 84.1%; viability at 10 µM (SNB-75): 98.7%; viability at 10 µM (U-251): 82.2%; viability at 10 µM (LOX IMVI): 38%
O=S(=O)(NCCNc1nccc(-c2c(-c3cccc(F)c3)nc3sccn23)n1)c1ccc(C(F)(F)F)cc1	71.3	79.3	82.6	92.8	89.2	98.2	89.7	92.1	70.6	82.2	82.1	71.8	88.8	84.1	92.4	73.3	109	114	71.2	91.4	viability at 10 µM (Malme-3M): 115%; viability at 10 µM (CCRF-CEM): 80.6%; viability at 10 µM (SR): 89.4%; viability at 10 µM (HOP-92): 64%; viability at 10 µM (NCI-H226): 82.8%; viability at 10 µM (NCI-H23): 86.8%; viability at 10 µM (NCI-H322M): 96.5%; viability at 10 µM (NCI-H460): 94.7%; viability at 10 µM (NCI-H522): 85%; viability at 10 µM (COLO 205): 68.3%; viability at 10 µM (HCT-116): 67.8%; viability at 10 µM (HCT-15): 72.6%; viability at 10 µM (HCT-29): 62.8%; viability at 10 µM (KM12): 80.6%; viability at 10 µM (SW-620): 110%; viability at 10 µM (SF-268): 77.8%; viability at 10 µM (SF-295): 107%; viability at 10 µM (SNB-75): 85%; viability at 10 µM (U-251): 89.8%; viability at 10 µM (LOX IMVI): 88.9%
O=S(=O)(NCCCNc1nccc(-c2c(-c3cccc(F)c3)nc3sccn23)n1)c1ccc(C(F)(F)F)cc1	102	99.8	83.5	96.5	94.7	107	89	94.7	67.9	87.8	80.1	77.7	87.2	75.7	92.8	80.4	110	116	74.2	92.4	viability at 10 µM (Malme-3M): 127%; viability at 10 µM (CCRF-CEM): 89.4%; viability at 10 µM (SR): 109%; viability at 10 µM (HOP-92): 94.8%; viability at 10 µM (NCI-H226): 77.5%; viability at 10 µM (NCI-H23): 90%; viability at 10 µM (NCI-H322M): 104%; viability at 10 µM (NCI-H460): 98.7%; viability at 10 µM (NCI-H522): 85.5%; viability at 10 µM (COLO 205): 91%; viability at 10 µM (HCT-116): 86.2%; viability at 10 µM (HCT-15): 78.8%; viability at 10 µM (HCT-29): 80.1%; viability at 10 µM (KM12): 88.5%; viability at 10 µM (SW-620): 115%; viability at 10 µM (SF-268): 75.6%; viability at 10 µM (SF-295): 104%; viability at 10 µM (SNB-75): 86.4%; viability at 10 µM (U-251): 95.1%; viability at 10 µM (LOX IMVI): 86.7%
